This note sets out measurements from patent US20120129843A1, “PYRIDYL-THIAZOLYL INHIBITORS OF PRO-MATRIX METALLOPROTEINASE ACTIVATION” (priority 2010, published 2012).

Structures are written as SMILES. Counter-ions that a name gives are not always drawn.

Test [1] concerns the target T1, proMMP9(20-445;ΔFnII) (SEQ ID NO:6) (Homo sapiens, UniProt P14780, DEL216-390).
T1 construct: start methionine (N); made in house; host or cells: E. coli BL21(DE3) RIL
T1 sequence (P14780 with tags, fused parts or gaps DEL216-390): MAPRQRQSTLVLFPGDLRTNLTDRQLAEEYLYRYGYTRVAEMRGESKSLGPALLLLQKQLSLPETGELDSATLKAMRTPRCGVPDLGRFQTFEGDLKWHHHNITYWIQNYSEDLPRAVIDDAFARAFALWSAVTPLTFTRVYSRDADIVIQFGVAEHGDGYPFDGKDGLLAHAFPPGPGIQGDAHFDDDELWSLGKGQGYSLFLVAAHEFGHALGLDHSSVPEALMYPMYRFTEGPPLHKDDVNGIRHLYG
The test is described as follows: ThermoFluor binding assay with proMMP9(20-445;ΔFnII). The procedure:
(§1) The ThermoFluor® (TF) assay is a 384-well plate-based binding assay that measures thermal stability of proteins (Biomol Screen 2001, 6, 429-40; Biochemistry 2005, 44, 5258-66). The experiments were carried out using instruments available from Johnson & Johnson Pharmaceutical Research & Development, LLC. TF dye used in all experiments was […] (1,8-ANS) (Invitrogen: A-47).
(§2) Compounds were arranged in a pre-dispensed plate (Greiner Bio-one: 781280), wherein compounds were serially diluted in 100% DMSO across 11 columns within a series. Columns 12 and 24 were used as DMSO reference and contained no compound. For multiple compound concentration-response experiments, the compound aliquots ([…]) were robotically predispensed directly into black 384-well polypropylene PCR microplates (Abgene: TF-0384/k) using a Cartesian Hummingbird liquid handler (DigiLab, Holliston, Mass.). Following compound dispense, protein and dye solutions were added to achieve the final assay volume of 3 μL. The assay solutions were overlayed with 1 μL of silicone oil (Fluka, type DC 200: 85411) to prevent evaporation.
(§3) Assay plates were robotically loaded onto a thermostatically controlled PCR-type thermal block and then heated from 40 to 90° C. at a ramp-rate of 1° C./min for all experiments. Fluorescence was measured by continuous illumination with UV light (Hamamatsu LC6) supplied via fiber optics and filtered through a band-pass filter (380-400 nm; >60D cutoff). Fluorescence emission of the entire 384-well plate was detected by measuring light intensity using a CCD camera (Sensys, Roper Scientific) filtered to detect 500±25 nm, resulting in simultaneous and independent readings of all 384 wells. A single image with 20-sec exposure time was collected at each temperature, and the sum of the pixel intensity in a given area of the assay plate was recorded vs temperature and fit to standard equations to yield the Tm (J Biomol Screen 2001, 6, 429-40).
(§4) Thermodynamic parameters necessary for fitting compound binding for each proMMP were estimated by differential scanning calorimetry (DSC) and from ThermoFluor® data. The heat capacity of unfolding for each protein was estimated from the molecular weight and from ThermoFluor® dosing data.
ThermoFluor® with proMMP9(20-445;ΔFnII) (SEQ ID NO:6)
The protein sample preparations included a desalting buffer exchange step via a PD-10 gravity column (GE Healthcare). The desalting buffer exchange was performed prior to diluting the protein to the final assay concentration of 2.8 μM proMMP9(20-445;ΔFnII) (SEQ ID NO:6). The concentration of proMMP9(20-445;ΔFnII) (SEQ ID NO:6) was determined spectrophotometrically based on a calculated extinction coefficient of ε280=39880 M^−1cm^−1, a calculated molecular weight of 28.2 kDa, and calculated pI of 5.5. ThermoFluor® reference conditions were define as follows: 80 μg/mL (2.8 μM) proMMP9(20-445;ΔFnII) (SEQ ID NO:6), 50 μM 1,8-ANS, pH 7.0 Buffer (50 mM HEPES pH 7.0, 100 mM NaCl, 0.001% Tween-20, 2.5 mM MgCl2, 300 μM CaCl2). The thermodynamic parameters for proMMP9(20-445;ΔFnII) (SEQ ID NO:6) are as follows: Tm (° C.)=72 (+/−0.1), ΔUH(Tm) (cal mol^−1)=160000(+/−5000), ΔUS(Tm) (cal mol^−1 K^−1)=434, ΔUCp (cal mol^−1 K^−1)=2400.
In general terms: DSF heats the sample and reads unfolding from a dye or from intrinsic fluorescence.

Test [2] concerns the target T2, proMMP9(67-444;ΔFnII) (SEQ ID NO:5) (Homo sapiens, UniProt P14780, DEL216-390).
T2 construct: start methionine (N); made in house; host or cells: E. coli BL21(DE3) RIL
T2 sequence (P14780 with tags, fused parts or gaps DEL216-390): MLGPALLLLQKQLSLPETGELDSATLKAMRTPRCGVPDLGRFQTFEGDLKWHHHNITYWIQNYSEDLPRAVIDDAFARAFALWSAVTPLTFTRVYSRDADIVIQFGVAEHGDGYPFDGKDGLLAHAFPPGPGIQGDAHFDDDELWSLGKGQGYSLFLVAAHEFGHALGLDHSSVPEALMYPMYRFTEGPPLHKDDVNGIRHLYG
The test is described as follows: ThermoFluor binding assay with proMMP9(67-444;ΔFnII). The protocol:
as §1, §2, §3, §4
ThermoFluor® with proMMP9(67-444;ΔFnII) (SEQ ID NO:5)
The protein sample preparations had to include a desalting buffer exchange step via a PD-10 gravity column (GE Healthcare). The desalting buffer exchange was performed prior to diluting the protein to the final assay concentration of 3.5 μM proMMP9(67-444;ΔFnII) (SEQ ID NO:5). The concentration of proMMP9(67-444;ΔFnII) (SEQ ID NO:5) was determined spectrophotometrically based on a calculated extinction coefficient of ε280=33900 M^−1cm^−1, a calculated molecular weight of 22.6 kDa, and calculated pI of 5.20. ThermoFluor® reference conditions were defined as follows: 80 μg/mL (3.5 μM) proMMP9(67-444;ΔFnII) (SEQ ID NO:5), 50 μM 1,8-ANS, pH 7.0 Buffer (50 mM HEPES pH 7.0, 100 mM NaCl, 0.001% Tween-20, 2.5 mM MgCl2, 300 μM CaCl2). The thermodynamic parameters for proMMP9(67-444;ΔFnII) (SEQ ID NO:5) are as follows: Tm (° C.)=63 (+/−0.1), ΔUH(Tm) (cal mol^−1)=105000(+/−5000), ΔUS(Tm) (cal mol^−1 K^−1)=[…], ΔUCp (cal mol^−1 K^−1)=2000.

Test [3] deals with T3, full-length proMMP9(1-707) (SEQ ID NO:1), activation by catalytic MMP3 (Homo sapiens, UniProt P14780, R574P).
T3 construct: made in house; host or cells: HEK293 (proMMP9, secreted); E. coli (MMP3)
T3 sequence (P14780 20-707 R574P): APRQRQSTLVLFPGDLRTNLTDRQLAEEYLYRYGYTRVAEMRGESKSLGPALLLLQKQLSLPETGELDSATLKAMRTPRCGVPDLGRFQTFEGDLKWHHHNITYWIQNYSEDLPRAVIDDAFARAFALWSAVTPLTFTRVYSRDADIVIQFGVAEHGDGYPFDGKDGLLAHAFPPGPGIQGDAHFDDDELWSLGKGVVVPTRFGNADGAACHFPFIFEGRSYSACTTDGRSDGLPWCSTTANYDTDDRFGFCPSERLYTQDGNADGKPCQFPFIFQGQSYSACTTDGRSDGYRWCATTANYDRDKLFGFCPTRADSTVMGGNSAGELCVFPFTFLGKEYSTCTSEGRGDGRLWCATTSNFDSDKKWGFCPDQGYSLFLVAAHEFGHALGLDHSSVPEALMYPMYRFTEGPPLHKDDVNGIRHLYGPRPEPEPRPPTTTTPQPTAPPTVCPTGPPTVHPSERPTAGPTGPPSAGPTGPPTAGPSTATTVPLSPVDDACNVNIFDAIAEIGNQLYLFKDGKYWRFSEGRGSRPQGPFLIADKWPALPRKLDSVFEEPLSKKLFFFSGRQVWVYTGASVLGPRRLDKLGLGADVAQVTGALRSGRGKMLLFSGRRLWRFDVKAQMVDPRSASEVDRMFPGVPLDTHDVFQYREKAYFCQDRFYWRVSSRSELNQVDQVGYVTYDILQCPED
Put plainly: proMMP9/MMP3 P126 Activation Assay. Type of test: biochemical. The protocol: proMMP9/MMP3 P126 Activation Assay
The reaction volume was 50 μL. […] Reactivity of residual MMP3 towards P-126 substrate was minimal under these conditions.

Broadly, the Kd is the free concentration of one partner at which half of the binding sites on the other are occupied at equilibrium, for simple one-to-one binding. Low readings indicate higher affinity, high ones lower affinity. The IC50 is the concentration needed to halve the response being measured. Low readings indicate greater potency, high ones weaker potency. On to `CC(C)Oc1ccc(C(N)=O)cc1Nc1nc(-c2ccnc(N3CCN(C)CC3)c2)cs1` [Example 28, 4-Isopropoxy-3-{4-[2-(4-methyl-piperazin-1-yl)-pyridin-4-yl]-thiazol-2-ylamino}-benzamide.TFA], for which the values for the Kd in test [1] and in test [2] were 82 nM and 990 nM, respectively. In test [3], this molecule came in with an IC50 of 210 nM.
With `COc1ccc(S(N)(=O)=O)cc1Nc1nc(-c2ccc(N3CCN(C)CC3)nc2)cs1` [Example 29, 4-Methoxy-3-{4-[6-(4-methyl-piperazin-1-yl)-pyridin-3-yl]-thiazol-2-ylamino}-benzenesulfonamide], the results for the dissociation constant Kd in test [1] and in test [2] were 930 nM and 1600 nM, respectively. The molecule further showed an IC50 in test [3] of 1400 nM.
Taken in the same sequence, the figures for `CN1CCN(c2ccc(-c3csc(Nc4cc(S(N)(=O)=O)ccc4OC(F)(F)F)n3)cn2)CC1` [Example 30, 3-{4-[6-(4-Methyl-piperazin-1-yl)-pyridin-3-yl]-thiazol-2-ylamino}-4-trifluoromethoxy-benzenesulfonamide] were 430 nM, 690 nM and 750 nM.
The corresponding values for `CN1CCN(c2ccc(-c3csc(Nc4cc(C(N)=O)ccc4OC(F)(F)F)n3)cn2)CC1` [Example 31, 3-{4-[6-(4-Methyl-piperazin-1-yl)-pyridin-3-yl]-thiazol-2-ylamino}-4-trifluoromethoxy-benzamide] are 110 nM, 610 nM and 640 nM.
Taken in the same sequence, the figures for `COc1ccc(C(N)=O)cc1Nc1nc(-c2ccc(N3CCN(C)CC3)nc2)cs1` [Example 32, 4-Methoxy-3-{4-[6-(4-methyl-piperazin-1-yl)-pyridin-3-yl]-thiazol-2-ylamino}-benzamide] were 360 nM, 2300 nM and 840 nM.
Take `CC(C)Oc1ccc(S(N)(=O)=O)cc1Nc1nc(-c2ccc(N3CCN(C)CC3)nc2)cs1` [Example 33, 4-Isopropoxy-3-{4-[6-(4-methyl-piperazin-1-yl)-pyridin-3-yl]-thiazol-2-ylamino}-benzenesulfonamide.HCl]: the equilibrium dissociation constant (Kd) is 46 nM in test [1] and 120 nM in test [2]. In test [3], this molecule gave an IC50 of 140 nM.
The corresponding values for `NC(=O)c1ccc(OC(F)(F)F)c(Nc2nc(-c3ccnc(Cl)c3)cs2)c1` [Example 34, 3-[4-(2-Chloro-pyridin-4-yl)-thiazol-2-ylamino]-4-trifluoromethoxy-benzamide.TFA] are 180 nM, 1500 nM and 1100 nM.
The corresponding values for `CC(C)Oc1ccc(S(N)(=O)=O)cc1Nc1nc(-c2ccnc(N3CCN(C)CC3)c2)cs1` [Example 35, 4-Isopropoxy-3-{4-[2-(4-methyl-piperazin-1-yl)-pyridin-4-yl]-thiazol-2-ylamino}-benzenesulfonamide.TFA] are 190 nM, 460 nM and 110 nM.
Taken in the same sequence, the figures for `CN1CCN(c2cc(-c3csc(Nc4cc(C(N)=O)ccc4OC(F)(F)F)n3)ccn2)CC1` [Example 36, 3-{4-[2-(4-Methyl-piperazin-1-yl)-pyridin-4-yl]-thiazol-2-ylamino}-4-trifluoromethoxy-benzamide.TFA] were 1300 nM, 7200 nM and 2300 nM.
For the molecule `CC(C)Oc1ccc(S(N)(=O)=O)cc1Nc1nc(-c2ccc(N3CCOCC3)nc2)cs1` [Example 37, 4-Isopropoxy-3-[4-(6-morpholin-4-yl-pyridin-3-yl)-thiazol-2-ylamino]-benzenesulfonamide.TFA], the Kd is 1300 nM in test [1] and 2400 nM in test [2]. Moreover, the IC50 in test [3] is about 2000 nM.
`CCN1CCN(c2ccc(-c3csc(Nc4cc(S(N)(=O)=O)ccc4OC(C)C)n3)cn2)CC1` [Example 38, 4-Isopropoxy-3-{4-[6-(4-ethyl-piperazin-1-yl)-pyridin-3-yl]-thiazol-2-ylamino}-benzenesulfonamide.TFA]: the Kd in test [1] was found to be 73 nM; in test [2], 380 nM. The molecule further registered an IC50 in test [3] of 170 nM.
Taken in the same sequence, the figures for `CC(C)Oc1ccc(S(N)(=O)=O)cc1Nc1nc(-c2ccc(N3CCN(C(C)C)CC3)nc2)cs1` [Example 39, 4-Isopropoxy-3-{4-[6-(4-isopropyl-piperazin-1-yl)-pyridin-3-yl]-thiazol-2-ylamino}-benzenesulfonamide.TFA] were 70 nM, 170 nM and 87 nM.
On to `CC(C)Oc1ccc(S(N)(=O)=O)cc1Nc1nc(-c2ccc(N3CCCN(C)CC3)nc2)cs1` [Example 40, 4-Isopropoxy-3-{4-[6-(4-methyl-[1,4]diazepan-1-yl)-pyridin-3-yl]-thiazol-2-ylamino}-benzenesulfonamideamide.TFA], for which the Kd was determined as 44 nM in test [1] and 330 nM in test [2]. For the same molecule, in test [3], the IC50 came to 87 nM.
On to `CC(C)Oc1ccc(S(N)(=O)=O)cc1Nc1nc(-c2ccc(N3CCC(N(C)C)CC3)nc2)cs1` [Example 41, 3-[4-(4-Dimethylamino-3,4,5,6-tetrahydro-2H-[1,2′]bipyridinyl-5′-yl)-thiazol-2-ylamino]-4-isopropoxy-benzenesulfonamide.TFA], for which the figures for the dissociation constant Kd in test [1] and in test [2] were 51 nM and 220 nM, respectively. In test [3], this molecule showed an IC50 of 59 nM.
The corresponding values for `CC(C)Oc1ccc(S(N)(=O)=O)cc1Nc1nc(-c2ccc(NCCN(C)C)nc2)cs1` [Example 42, 3-(4-{6-[(2-Dimethylamino-ethyl)-amino]-pyridin-3-yl}-thiazol-2-ylamino)-4-isopropoxy-benzenesulfonamide.TFA] are 130 nM, 680 nM and 150 nM.
